Results as given in ChEMBL document CHEMBL4038347, “Converting Teixobactin into a Cationic Antimicrobial Peptide (AMP)” (2017).
Values after ≈ are worked out from the molar mass of the structure shown. Active and inactive are the calls of the source. The calls are words filed in the database; no cut-off is given here. Where a SMILES comes first, the peptide text is derived from it. Bridges are numbered along the chain shown (N, C = ends). [ ]: non-standard residue; d: D form. d(aIle) = CC[C@H](C)[C@@H](N)C(=O)O; dNMeF = CN[C@H](Cc1ccccc1)C(=O)O; Orn = NCCC[C@H](N)C(=O)O

Assays:
Assay type in all cases: functional
Escherichia coli = assay: Antibacterial activity against Escherichia coli ATCC 25922 after 24 hrs by broth microdilution method; conditions: ATCC 25922, 24 h
Pseudomonas aeruginosa = assay: Antibacterial activity against Pseudomonas aeruginosa ATCC 27853 after 24 hrs by broth microdilution method; conditions: ATCC 27853, 24 h
Bacillus subtilis = assay: Antibacterial activity against Bacillus subtilis ATCC 6051 after 24 hrs by broth microdilution method; conditions: ATCC 6051, 24 h
Staphylococcus aureus = assay: Antibacterial activity against Staphylococcus aureus ATCC 29213 after 24 hrs by broth microdilution method

Question: CC[C@H](C)[C@H](NC(=O)[C@@H](Cc1ccccc1)NC)C(=O)N[C@@H](CCCCN)C(=O)N[C@H](CCC(N)=O)C(=O)N[C@@H](C(=O)N[C@H](C(=O)N[C@@H](CO)C(=O)N[C@H]1C(=O)N[C@@H](CCCCN)C(=O)N[C@@H](CCCCN)C(=O)N[C@@H]([C@@H](C)CC)C(=O)O[C@H]1C)[C@@H](C)CC)[C@@H](C)CC (stereo in doubt) was tested. Which MIC (Escherichia coli) did it give?
Answer: 32 µg/mL (≈ 24.3 µM)

Question: What about the MIC (Pseudomonas aeruginosa) of the same compound?
Answer: 128 µg/mL (≈ 97.4 µM)

Question: And the MIC (Bacillus subtilis)?
Answer: 1 µg/mL (≈ 0.761 µM)

Question: And the MIC (Staphylococcus aureus; ATCC 29213, 24 h)?
Answer: 4 µg/mL (≈ 3.04 µM)

Question: What does the source list for CC[C@H](C)[C@H](NC(=O)[C@@H](Cc1ccccc1)NC)C(=O)N[C@@H](CCCCN)C(=O)N[C@H](CCC(N)=O)C(=O)N[C@@H](C(=O)N[C@H](C(=O)N[C@@H](CO)C(=O)N[C@H]1C(=O)N[C@@H](C)C(=O)N[C@@H](CCCN)C(=O)N[C@@H]([C@@H](C)CC)C(=O)O[C@H]1C)[C@@H](C)CC)[C@@H](C)CC?
Answer: MIC (Escherichia coli): 64 µg/mL (≈ 51.5 µM); MIC (Pseudomonas aeruginosa): 256 µg/mL (≈ 206 µM); MIC (Bacillus subtilis): 2 µg/mL (≈ 1.61 µM); MIC (Staphylococcus aureus; ATCC 29213, 24 h): 2 µg/mL (≈ 1.61 µM)

Question: CC[C@H](C)[C@H](NC(=O)[C@@H](Cc1ccccc1)NC)C(=O)N[C@@H](CCCCN)C(=O)N[C@H](CCCCN)C(=O)N[C@@H](C(=O)N[C@H](C(=O)N[C@@H](CCCCN)C(=O)N[C@H]1C(=O)N[C@@H](C)C(=O)N[C@@H](CCCN)C(=O)N[C@@H]([C@@H](C)CC)C(=O)O[C@H]1C)[C@@H](C)CC)[C@@H](C)CC (H-[dNMeF]IK[dK][d(aIle)]IK[dT]A[Orn]I; ester 8-C) was tested. Which MIC (Escherichia coli) did it give?
Answer: 32 µg/mL (≈ 24.9 µM)

Question: And the MIC (Pseudomonas aeruginosa)?
Answer: 64 µg/mL (≈ 49.8 µM)

Question: And the MIC (Bacillus subtilis)?
Answer: 16 µg/mL (≈ 12.5 µM)

Question: And the MIC (Staphylococcus aureus; ATCC 29213, 24 h)?
Answer: 256 µg/mL (≈ 199 µM)

Question: Which MIC (Escherichia coli) does the source give for CC[C@H](C)[C@H](NC(=O)[C@@H](Cc1ccccc1)NC)C(=O)N[C@@H](CO)C(=O)N[C@H](CCC(N)=O)C(=O)N[C@@H](C(=O)N[C@H](C(=O)N[C@@H](CCCCN)C(=O)N[C@H]1C(=O)N[C@@H](C)C(=O)N[C@@H](CCCN)C(=O)N[C@@H]([C@@H](C)CC)C(=O)O[C@H]1C)[C@@H](C)CC)[C@@H](C)CC here?
Answer: 512 µg/mL (≈ 412 µM)

Question: And the MIC (Pseudomonas aeruginosa)?
Answer: 512 µg/mL (≈ 412 µM)

Question: And the MIC (Bacillus subtilis)?
Answer: 16 µg/mL (≈ 12.9 µM)

Question: What about the MIC (Staphylococcus aureus; ATCC 29213, 24 h) of the same compound?
Answer: 128 µg/mL (≈ 103 µM)

Question: For CC[C@H](C)[C@H](NC(=O)[C@@H](Cc1ccccc1)NC)C(=O)N[C@@H](CO)C(=O)N[C@H](CCCCN)C(=O)N[C@@H](C(=O)N[C@H](C(=O)N[C@@H](CO)C(=O)N[C@H]1C(=O)N[C@@H](C)C(=O)N[C@@H](CCCN)C(=O)N[C@@H]([C@@H](C)CC)C(=O)O[C@H]1C)[C@@H](C)CC)[C@@H](C)CC, which MIC (Escherichia coli) is on record?
Answer: 64 µg/mL (≈ 53.2 µM)

Question: And the MIC (Pseudomonas aeruginosa)?
Answer: 256 µg/mL (≈ 213 µM)

Question: And the MIC (Bacillus subtilis)?
Answer: 2 µg/mL (≈ 1.66 µM)

Question: What about the MIC (Staphylococcus aureus; ATCC 29213, 24 h) of the same compound?
Answer: 2 µg/mL (≈ 1.66 µM)

Question: For CC[C@H](C)[C@H](NC(=O)[C@@H](Cc1ccccc1)NC)C(=O)N[C@@H](CCCCN)C(=O)N[C@H](CCCCN)C(=O)N[C@@H](C(=O)N[C@H](C(=O)N[C@@H](CCCCN)C(=O)N[C@H]1C(=O)N[C@@H](C)C(=O)N[C@@H](CCCNC(=N)N)C(=O)N[C@@H]([C@@H](C)CC)C(=O)O[C@H]1C)[C@@H](C)CC)[C@@H](C)CC, which MIC (Escherichia coli) is on record?
Answer: 32 µg/mL (≈ 24.1 µM)

Question: What about the MIC (Pseudomonas aeruginosa) of the same compound?
Answer: 32 µg/mL (≈ 24.1 µM)

Question: And the MIC (Bacillus subtilis)?
Answer: 4 µg/mL (≈ 3.01 µM)

Question: And the MIC (Staphylococcus aureus; ATCC 29213, 24 h)?
Answer: 32 µg/mL (≈ 24.1 µM)

Question: With CC[C@H](C)[C@H](NC(=O)[C@@H](Cc1ccccc1)NC)C(=O)N[C@@H](CCCCN)C(=O)N[C@H](CCCCN)C(=O)N[C@@H](C(=O)N[C@H](C(=O)N[C@@H](CO)C(=O)N[C@H]1C(=O)N[C@@H](C)C(=O)N[C@@H](CCCCN)C(=O)N[C@@H]([C@@H](C)CC)C(=O)O[C@H]1C)[C@@H](C)CC)[C@@H](C)CC (H-[dNMeF]IK[dK][d(aIle)]IS[dT]AKI; ester 8-C) as the compound, how does the MIC (Escherichia coli) read?
Answer: 32 µg/mL (≈ 25.4 µM)

Question: What about the MIC (Pseudomonas aeruginosa) of the same compound?
Answer: 32 µg/mL (≈ 25.4 µM)

Question: What about the MIC (Bacillus subtilis) of the same compound?
Answer: 1 µg/mL (≈ 0.795 µM)

Question: And the MIC (Staphylococcus aureus; ATCC 29213, 24 h)?
Answer: 8 µg/mL (≈ 6.36 µM)

Question: How did the MIC (Escherichia coli) turn out when CC[C@H](C)[C@H](NC(=O)[C@@H](Cc1ccccc1)NC)C(=O)N[C@@H](CO)C(=O)N[C@H](CCCCN)C(=O)N[C@@H](C(=O)N[C@H](C(=O)N[C@@H](CCCCN)C(=O)N[C@H]1C(=O)N[C@@H](C)C(=O)N[C@@H](CCCN)C(=O)N[C@@H]([C@@H](C)CC)C(=O)O[C@H]1C)[C@@H](C)CC)[C@@H](C)CC was run?
Answer: 128 µg/mL (≈ 103 µM)

Question: What about the MIC (Pseudomonas aeruginosa) of the same compound?
Answer: 128 µg/mL (≈ 103 µM)

Question: And the MIC (Bacillus subtilis)?
Answer: 16 µg/mL (≈ 12.9 µM)

Question: And the MIC (Staphylococcus aureus)?
Answer: inactive
